The values below come from publication PMC10385824, “Antiproliferative and Tubulin-Destabilising Effects of 3-(Prop-1-en-2-yl)azetidin-2-Ones and Related Compounds in MCF-7 and MDA-MB-231 Breast Cancer Cells” (Pharmaceuticals, 2023).

Like-named read-outs stand apart in the source and are kept apart here.

Data set [1] deals with MDA-MB-231 human breast cancer cells. Description: Alamar Blue cell viability (antiproliferative) assay. The data set is classed as cell-based. The following applies: 72 h, eight concentrations 0.001-50 μM, mean ± SEM, read-out: Antiproliferative Activity IC50.
Data set [2] concerns MCF-7 human breast cancer cells. As to the kind of experiment: cells.
The subject of data set [3] is NCI 60 human cancer cell line panel. Description: NCI 60 cell line screen (SRB), panel values. The following applies: Homo sapiens, 60 cell.
The subject of data set [4] is purified bovine brain tubulin. Description: Tubulin polymerization assay (light scattering, BK006 kit). Format: biochemical. The conditions noted are these: compound at 10 μM; for Fold Reduction in Vmax: relative to vehicle. As to the method:
Tubulin polymerization was monitored using the BK006 kit obtained from Cytoskeleton Inc. (Denver, CO, USA). The values reported represent the average values determined from two independent assays. Purified bovine brain tubulin (>99%, 3 mg/mL) in buffer containing PIPES (80 mM, pH 6.9), EGTA (0.5 mM), MgCl2 (2 mM), GTP (1 mM) and glycerol (10%) was incubated at 37 °C in vehicle (1% DMSO or EtOH (v/v) in dH2O) or with compounds 9h, 9q, 9s, 10h, 10p, 10r, 11h, 11p, 11r, 17f (all at 10 µM concentration); CA-4 (10 μM) was used as control. In this assay, light scattering is related to the concentration of polymerised microtubules produced. Tubulin assembly was monitored turbidimetrically at 340 nm at 37 °C in a Spectramax 340 PC spectrophotometer (Molecular Devices, Sunnyvale, CA, USA).

Data set [5] has as its system MDA-MB-231/ATCC. As to the kind of experiment: NCI-60 SRB screen, breast cancer. Format: cell-based, human. The conditions noted are these: Homo sapiens, MDA-MB-231, 48 h, read-out: Antiproliferative Activity IC50.
Data set [6] relates to MCF-7 human breast cancer cells. The conditions noted are these: read-out: Antiproliferative Activity IC50; MCF-7; 72 h; eight concentrations (0.001–50 mM [sic]); mean ± SEM; Table 5.
Where [7] appears, read: MCF7, read-out: Antiproliferative Activity IC50, MCF-7, eight concentrations 0.001–50 μM, mean ± SEM, Table 3.
Setting [8] is: MCF7, read-out: Antiproliferative Activity IC50.
Where [9] appears, read: MCF7, read-out: Antiproliferative Activity IC50, MCF-7, eight concentrations 0.001–50 μM, mean ± SEM, Table 4.
The mark [10] stands for this setting: MCF7, 72 h, read-out: Antiproliferative Activity IC50, MCF-7, 72 h, eight concentrations 1–50 μM, mean ± SEM, Table 2.
Setting [11] is: MCF7, 72 h, read-out: Antiproliferative Activity IC50, MCF-7, 72 h, eight concentrations (0.001–50 mM [sic]), mean ± SEM, Table 5.

On to `C=CC[C@@H]1C(=O)N(c2cc(OC)c(OC)c(OC)c2)[C@H]1c1ccc(C)cc1` (relative stereo) [10g, 3-Allyl-4-p-tolyl-1-olyl-1-(3,4,5-trimethoxyphenyl)azetidin-2-one], for which the IC50 in data set [1] came to 0.377 ± 0.06 µM; in data set [2] (setting [7]), 0.199 ± 0.03 µM.

`C=C(C)C1C(=O)N(c2cc(OC)c(OC)c(OC)c2)C1c1ccc(OCC)cc1` (stereo not shown) [9i, 4-(4-Ethoxyphenyl)-1-(3,4,5-trimethoxyphenyl)-3-(prop-1-en-2-yl)azetidin-2-one] had a melting point of 100 to 102 °C. Further, the IC50 in data set [1] is 0.171 ± 0.011 µM. In data set [2] (MCF7, MCF-7), the IC50 was determined as 0.081 µM.

The compound `C=CCC1C(=O)N(c2cc(OC)c(OC)c(OC)c2)C1c1cccc2ccccc12` (stereo not shown) [10m, 3-Allyl-4-naphthalen-1-yl-1-(3,4,5-trimethoxyphenyl)azetidin-2-one] returned a melting point of 139 to 140 °C. Further, in data set [1], the IC50 was determined as 0.656 ± 0.13 µM. The IC50 in data set [2] (setting [7]) was found to be 0.21 ± 0.026 µM.

`C=C/C=C/C1C(=O)N(c2cc(OC)c(OC)c(OC)c2)C1c1ccc(OC)c(O)c1` (stereo not shown) [11p, (E)-3-(Buta-1,3-dien-1-yl)-4-(3-hydroxy-4-methoxyphenyl)-1-(3,4,5-trimethoxyphenyl)azetidin-2-one]: the GI50 in data set [3] (read-out: Mean GI50, mean over all NCI 60 cell lines) turned out to be 0.288 µM. Moreover, in data set [3] (read-out: Mean LC50), the CC50 was 91.2 µM. In data set [3] (read-out: Mean TGI), the IC (TGI (total growth inhibition)) was 31.6 µM. Further, the IC50 in data set [2] (setting [8]) came out at 0.061 ± 0.008 µM; in data set [5], 0.113 µM. Also, the “Fold Reduction in Vmax” value in data set [4] is recorded as 1.1.

Consider `COC(=O)C1=C(C(=O)OC)C(C2C(=O)N(c3cc(OC)c(OC)c(OC)c3)C2c2cccc3ccccc23)CC=C1` (stereo not shown) [22a, Dimethyl-6-(1-(3,4,5-trimethoxyphenyl)-2-(naphthalen-1-yl)-4-oxoazetidin-3-yl)cyclohexa-1,3-diene-1,2-dicarboxylate], for which the IC50 in data set [6] is 142 ± 20.3 µM.

Turning to `C=C/C=C/C1C(=O)N(c2cc(OC)c(OC)c(OC)c2)C1c1ccc(F)cc1` (stereo not shown) [11d, (E)-3-(Buta-1,3-dien-1-yl)-4-(4-fluorophenyl)-1-(3,4,5-trimethoxyphenyl)azetidin-2-one], the melting point fell in the range of 137 to 139 °C. For the same compound, the IC50 in data set [2] (setting [9]) worked out at 3.21 ± 0.62 µM.

As to `C=C(C)C1C(=O)N(c2cc(OC)c(OC)c(OC)c2)C1c1ccccc1` (stereo not shown) [9f, 4-Phenyl-1-(3,4,5-trimethoxyphenyl)-3-(prop-1-en-2-yl)azetidin-2-one], the melting point is 108 to 109 °C. In data set [2] (setting [10]), the IC50 was found to be 0.494 ± 0.14 µM.

Turning to `C=CCC1C(=O)N(c2cc(OC)c(OC)c(OC)c2)C1c1ccc(OCc2ccccc2)cc1` (stereo not shown) [10l, 3-Allyl-4-(4-benzyloxyphenyl)-1-(3,4,5-trimethoxyphenyl)azetidin-2-one], the melting point lay within 140 to 141 °C. The IC50 in data set [1] came out at 0.486 ± 0.06 µM. Moreover, the IC50 in data set [2] (setting [7]) stood at 7.39 ± 0.67 µM.

In turn, `COc1ccc(C2C(C3C=CCC4C(=O)OC(=O)C43)C(=O)N2c2cc(OC)c(OC)c(OC)c2)cc1O` (stereo not shown) [21d, 3a,4,7,7a-Tetrahydro-4-(2-(3-hydroxy-4-methoxyphenyl)-1-(3,4,5-trimethoxyphenyl)-4-oxoazetidin-3-yl)isobenzofuran-1,3-dione] returned a melting point of 224 to 225 °C. Further, the IC50 in data set [2] (setting [11]) was determined as 91.1 ± 14.5 µM.

For `C=C/C=C/C1C(=O)N(c2cc(OC)c(OC)c(OC)c2)C1c1ccc(Br)cc1` (stereo not shown) [11c, (E)-4-(4-Bromophenyl)-3-(buta-1,3-dien-1-yl)-1-(3,4,5-trimethoxyphenyl)azetidin-2-one], the melting point lay within 153 to 155 °C. The IC50 in data set [2] (setting [9]) came to 0.428 ± 0.042 µM.

With `CCCCOc1ccc(C2C(C3C=CCC4C(=O)N(c5ccccc5)C(=O)C43)C(=O)N2c2cc(OC)c(OC)c(OC)c2)cc1` (stereo not shown) [21c, 4-(2-(4-Butoxyphenyl)-4-oxo-1-(3,4,5-trimethoxyphenyl)azetidin-3-yl)-2-phenyl-3a,4,7,7a-tetrahydro-1H-isoindole-1,3(2H)-dione], the melting point lay in the range of 163 to 164 °C. For the same compound, in data set [2] (setting [11]), the IC50 was 38.6 ± 4.9 µM.

Compound `C=CCC1C(=O)N(c2cc(OC)c(OC)c(OC)c2)C1c1ccc(F)cc1` (stereo not shown) [10d, 3-Allyl-4-(4-fluorophenyl)-1-(3,4,5-trimethoxyphenyl) azetidin-2-one] returned a melting point of 89 to 90 °C. Further, the IC50 in data set [2] (setting [8]) turned out to be 33.8 ± 9.04 µM.

`C=C(C)C1C(=O)N(c2cc(OC)c(OC)c(OC)c2)C1c1ccc([N+](=O)[O-])cc1` (stereo not shown) [9a, 4-(4-Nitrophenyl)-1-(3,4,5-trimethoxyphenyl)-3-(prop-1-en-2-yl)azetidin-2-one]: the melting point was 129 to 130 °C. Also, in data set [2] (setting [10]), the IC50 was 4.96 ± 0.69 µM.

Regarding `C=C/C=C/C1C(=O)N(c2cc(OC)c(OC)c(OC)c2)C1c1ccc(OC)c([N+](=O)[O-])c1` (stereo not shown) [11q, (E)-3-(Buta-1,3-dien-1-yl)-4-(4-methoxy-3-nitrophenyl)-1-(3,4,5-trimethoxyphenyl)azetidin-2-one], the melting point was 88 to 90 °C. Also, in data set [2] (setting [9]), the IC50 was 0.511 ± 0.09 µM.

Compound `C=C/C=C/C1C(=O)N(c2cc(OC)c(OC)c(OC)c2)C1c1cccc2ccccc12` (stereo not shown) [11m, (E)-3-(Buta-1,3-dien-1-yl)-4-(naphthalen-1-yl)-1-(3,4,5-trimethoxyphenyl)azetidin-2-one] had a melting point of 113 to 114 °C. Also, the IC50 in data set [2] (setting [9]) amounted to 0.576 ± 0.1 µM.

In turn, `C=C/C=C/C1C(=O)N(c2cc(OC)c(OC)c(OC)c2)C1c1ccc(Oc2ccccc2)cc1` (stereo not shown) [11k, (E)-3-(Buta-1,3-dien-1-yl)-4-(4-phenoxyphenyl)-1-(3,4,5-trimethoxyphenyl)azetidin-2-one] returned a melting point of 119 to 120 °C. In addition, in data set [2] (setting [9]), the IC50 came to 37.9 ± 3.8 µM.

`C=C/C=C/C1C(=O)N(c2cc(OC)c(OC)c(OC)c2)C1c1ccc([N+](=O)[O-])cc1` (stereo not shown) [11a, (E)-3-(Buta-1,3-dien-1-yl)-4-(4-nitrophenyl)-1-(3,4,5-trimethoxyphenyl)azetidin-2-one] displayed a melting point of 133 to 134 °C. Also, in data set [2] (setting [9]), the IC50 stood at 0.784 ± 0.13 µM.

In the case of `COc1cc(N2C(=O)C(C3C=CCC4C(=O)N(c5ccccc5)C(=O)C43)C2c2ccc(Cl)cc2)cc(OC)c1OC` (stereo not shown) [21a, 4-(2-(4-Chlorophenyl)-1-(3,4,5-trimethoxyphenyl)-4-oxoazetidin-3-yl)-3a,4,7,7a-tetrahydro-2-phenyl-2H-isoindole-1,3-dione], the melting point was in the range of 208 to 210 °C. Also, the IC50 in data set [2] (setting [11]) turned out to be 106 ± 13.9 µM.

In turn, `C=C(C)C1C(=O)N(c2ccc(OC)cc2)C1c1ccccc1` (stereo not shown) [9w, 1-(4-Methoxyphenyl)-4-phenyl-3-(prop-1-en-2-yl)azetidin-2-one] registered a melting point of 111 to 113 °C. Also, the IC50 in data set [2] (setting [10]) was 0.033 ± 0.005 µM.

For the compound `CCOC(=O)CC1C(=O)N(c2cc(OC)c(OC)c(OC)c2)C1c1ccc(OC)cc1` (stereo not shown) [17f, Ethyl-2-(1-(3,4,5-trimethoxyphenyl)-2-(4-methoxyphenyl)-4-oxoazetidin-3-yl)acetate], the IC50 in data set [2] (setting [11]) worked out at 0.035 ± 0.003 µM. In addition, the Vmax in data set [4] (37 °C, 340 nm) came out at 0.0038 mOD/min. Also, in data set [4], the “Fold Reduction in Vmax” value was 2.2.

`C=C/C=C/C1C(=O)N(c2cc(OC)c(OC)c(OC)c2)C1c1ccc(Cl)cc1` (stereo not shown) [11b, (E)-3-(Buta-1,3-dien-1-yl)-4-(4-chlorophenyl)-1-(3,4,5-trimethoxyphenyl)azetidin-2-one] yielded a melting point of 145 to 147 °C. Also, the IC50 in data set [2] (setting [9]) amounted to 0.315 ± 0.04 µM.

`COc1ccc(C2C(CC=Cc3ccccc3)C(=O)N2c2cc(OC)c(OC)c(OC)c2)cc1` (stereo not shown) [17a, 3-Cinnamyl-4-(4-methoxyphenyl)-1-(3,4,5-trimethoxyphenyl)azetidin-2-one] had a melting point of 103 to 104 °C. Also, the IC50 in data set [2] (setting [11]) was found to be 0.332 ± 0.04 µM.

Compound `C=C/C=C/C1C(=O)N(c2cc(OC)c(OC)c(OC)c2)C1c1ccccc1` (stereo not shown) [11f, (E)-3-(Buta-1,3-dien-1-yl)-4-phenyl-1-(3,4,5-trimethoxyphenyl)azetidin-2-one] showed a melting point of 90 to 93 °C. Further, the IC50 in data set [2] (setting [9]) was 19.4 ± 4.03 µM.

In turn, `C=C/C=C/C1C(=O)N(c2cc(OC)c(OC)c(OC)c2)C1c1ccc(OCC)cc1` (stereo not shown) [11i, (E)-3-(Buta-1,3-dien-1-yl)-4-(4-ethoxyphenyl)-1-(3,4,5-trimethoxyphenyl)-azetidin-2-one] yielded a melting point of 73 to 75 °C. The IC50 in data set [2] (setting [9]) was 0.261 ± 0.05 µM.

Compound `C=CC=CC1C(=O)N(c2cc(OC)c(OC)c(OC)c2)C1c1ccc(C)cc1` (stereo not shown) [11g, 3-(Buta-1,3-dienyl)-4-p-tolyl-1-(3,4,5-trimethoxyphenyl)azetidin-2-one] showed a melting point of 88 to 89 °C. Further, the IC50 in data set [1] came to 0.16 ± 0.014 µM. Moreover, the IC50 in data set [2] (setting [9]) turned out to be 0.2 ± 0.04 µM.

For orientation: melting point means the temperature, or range, at which the solid turns liquid. The term GI50 denotes the concentration that inhibits growth by half.
